This assay in a line: Induction of nuclear translocation of human GFP-tagged NFATc1 expressed in virus infected primary human skeletal muscle myoblasts after 3 hrs by DAPI staining based assay.
For the molecule `COCCn1cc(-c2ccncc2)c2ccncc21`, the EC50 turned out to be 6.9 µM.

Take `Fc1ccc(Cn2cc(-c3ccncc3)c3ccncc32)cc1`: the EC50 is 7.58 µM. The EC50 values of the last two molecules are within 1.5-fold of each other.

The molecule `Cn1cc(-c2ccncc2)c2ccncc21` had an EC50 of 2.21 µM.

`Nc1nccc(-c2c[nH]c3cnccc23)n1` displayed a half-maximal effective concentration (EC50) of 4.8 µM.

In turn, `c1cc(-c2c[nH]c3cnccc23)ccn1` yielded an EC50 of 2.98 µM.

Molecule `c1cc(-c2cn(CCC3CC3)c3cnccc23)ccn1` displayed a 50% effective concentration (EC50) of 1.59 µM. Against the preceding molecule, the EC50 is about 1.9-fold lower.

In turn, `COc1cccc2c(-c3ccnc(N)n3)c[nH]c12` came in with an EC50 of 9.8 µM.

The molecule `c1cc(-c2cn(CCCN3CCOCC3)c3cnccc23)ccn1` yielded an EC50 of 6.96 µM.

`Clc1cnccc1-c1c[nH]c2cnccc12`: the EC50 worked out at 5.31 µM.

`N#Cc1cccc2c(-c3ccnc(N)n3)c[nH]c12` gave an EC50 of 21.7 µM.

For `Cc1cc(-c2c[nH]c3cnccc23)ccn1`, a half-maximal effect (EC50) was put at 20.8 µM.

Turning to `c1ccc2c(-c3c[nH]c4cnccc34)ccnc2c1`, the concentration giving a half-maximal response (EC50) was found to be 43 µM. This EC50 is about 2.1-fold higher than that of the molecule before.

For the molecule `Fc1cc(-c2c[nH]c3cnccc23)ccn1`, the EC50 amounted to 4.85 µM. Compared with the last molecule, the EC50 is about 8.9-fold lower.

In turn, `CC(C)n1cc(-c2ccncc2)c2ccncc21` returned a 50% effective concentration (EC50) of 0.31 µM.

The record behind these values is BindingDB's records for doi:10.1016/j.bmcl.2017.03.037 (Rigel Pharmaceuticals, 2017).
